# Laboratory results taken from US10150728B2, “Alkylene derivatives” (Shionogi & Co., Ltd., priority 2013, dated 2018).
# Target: recombinant human ACC2 (Homo sapiens (Human), UniProt O00763)
# Test: Measurement of inhibitory activity on human ACC2 (MALDI-TOF MS, acetyl CoA to malonyl CoA conversion)
# Type: biochemical
# Conditions: Table 154
# Outline: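 His-tagged human ACC2 (residues 27–2458) from baculovirus-infected Sf-9 cells was preincubated 1 h in pH 7.4 HEPES-KOH buffer with MgCl2, 6-10 mM potassium citrate, glutathione and BSA. Substrate solution held 1 mM ATP, 0.8 mM acetyl CoA and 25-50 mM bicarbonate. After 1–3 h at room temperature, malonyl CoA/(malonyl+acetyl CoA) was read by negative-mode MALDI-TOF MS; citrate, bicarbonate and time varied by enzyme lot.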
# recombinant human ACC2, sequence (O00763 27-2458): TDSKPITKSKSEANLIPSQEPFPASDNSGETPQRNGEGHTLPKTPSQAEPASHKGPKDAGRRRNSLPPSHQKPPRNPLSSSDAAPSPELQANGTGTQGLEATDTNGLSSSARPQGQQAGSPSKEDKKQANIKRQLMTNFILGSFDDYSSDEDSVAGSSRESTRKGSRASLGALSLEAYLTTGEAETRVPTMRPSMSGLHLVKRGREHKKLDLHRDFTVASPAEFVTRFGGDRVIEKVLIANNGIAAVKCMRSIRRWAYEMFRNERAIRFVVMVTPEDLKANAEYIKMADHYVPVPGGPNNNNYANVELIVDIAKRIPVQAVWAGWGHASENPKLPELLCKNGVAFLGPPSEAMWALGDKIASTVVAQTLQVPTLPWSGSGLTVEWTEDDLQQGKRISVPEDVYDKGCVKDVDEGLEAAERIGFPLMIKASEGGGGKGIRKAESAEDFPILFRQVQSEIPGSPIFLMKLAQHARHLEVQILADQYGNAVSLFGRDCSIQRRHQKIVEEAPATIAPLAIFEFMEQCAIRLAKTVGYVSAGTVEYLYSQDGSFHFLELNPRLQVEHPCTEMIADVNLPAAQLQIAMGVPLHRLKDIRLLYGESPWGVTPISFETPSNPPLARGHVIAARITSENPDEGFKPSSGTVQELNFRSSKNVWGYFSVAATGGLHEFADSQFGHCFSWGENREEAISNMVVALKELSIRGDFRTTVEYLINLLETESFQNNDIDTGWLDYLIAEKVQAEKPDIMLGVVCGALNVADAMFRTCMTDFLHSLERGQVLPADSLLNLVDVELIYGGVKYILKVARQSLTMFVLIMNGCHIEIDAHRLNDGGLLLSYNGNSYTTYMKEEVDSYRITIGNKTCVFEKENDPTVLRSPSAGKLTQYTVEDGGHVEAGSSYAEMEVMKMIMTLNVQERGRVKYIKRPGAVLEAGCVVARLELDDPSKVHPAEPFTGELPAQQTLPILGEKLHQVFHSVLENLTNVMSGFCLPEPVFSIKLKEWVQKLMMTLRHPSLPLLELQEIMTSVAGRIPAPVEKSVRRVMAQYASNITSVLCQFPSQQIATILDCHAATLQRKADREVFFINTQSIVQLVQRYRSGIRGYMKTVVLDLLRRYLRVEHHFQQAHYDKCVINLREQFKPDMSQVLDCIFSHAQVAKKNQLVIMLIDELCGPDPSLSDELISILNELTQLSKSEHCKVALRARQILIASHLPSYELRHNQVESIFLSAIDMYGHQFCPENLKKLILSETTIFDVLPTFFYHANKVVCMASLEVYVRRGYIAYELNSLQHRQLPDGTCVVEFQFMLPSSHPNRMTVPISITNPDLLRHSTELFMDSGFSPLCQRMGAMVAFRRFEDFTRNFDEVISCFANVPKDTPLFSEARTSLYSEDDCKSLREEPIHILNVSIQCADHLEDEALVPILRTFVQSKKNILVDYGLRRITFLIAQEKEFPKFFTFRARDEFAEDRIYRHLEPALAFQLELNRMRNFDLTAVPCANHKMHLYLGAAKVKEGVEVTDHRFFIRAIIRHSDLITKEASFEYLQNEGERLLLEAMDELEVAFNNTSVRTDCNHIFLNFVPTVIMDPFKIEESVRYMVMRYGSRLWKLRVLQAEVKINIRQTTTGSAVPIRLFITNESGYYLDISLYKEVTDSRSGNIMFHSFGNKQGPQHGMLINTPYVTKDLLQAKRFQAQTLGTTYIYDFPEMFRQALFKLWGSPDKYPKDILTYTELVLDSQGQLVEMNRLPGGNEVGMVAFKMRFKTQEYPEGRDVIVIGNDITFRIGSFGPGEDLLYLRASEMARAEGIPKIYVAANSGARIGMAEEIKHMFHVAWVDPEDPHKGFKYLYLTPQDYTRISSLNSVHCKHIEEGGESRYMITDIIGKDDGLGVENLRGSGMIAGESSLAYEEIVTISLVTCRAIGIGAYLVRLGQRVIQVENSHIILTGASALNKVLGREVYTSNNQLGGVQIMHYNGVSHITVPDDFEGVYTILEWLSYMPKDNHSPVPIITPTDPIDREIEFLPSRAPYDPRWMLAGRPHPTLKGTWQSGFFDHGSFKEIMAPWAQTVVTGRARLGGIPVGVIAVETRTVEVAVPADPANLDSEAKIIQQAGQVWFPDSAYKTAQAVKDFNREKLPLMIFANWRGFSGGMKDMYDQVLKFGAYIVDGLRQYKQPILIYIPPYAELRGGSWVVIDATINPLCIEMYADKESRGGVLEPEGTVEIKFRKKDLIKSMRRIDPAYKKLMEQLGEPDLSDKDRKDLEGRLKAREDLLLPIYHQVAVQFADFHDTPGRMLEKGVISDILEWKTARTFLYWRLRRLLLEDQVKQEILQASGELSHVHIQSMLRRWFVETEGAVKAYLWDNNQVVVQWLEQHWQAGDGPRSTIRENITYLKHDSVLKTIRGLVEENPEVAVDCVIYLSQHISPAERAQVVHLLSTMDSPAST
row,IC50 [nM],SMILES
1,68,CC(=O)N[C@@H](C)COc1ccc(Oc2cc(F)c3nc(C(C)C)sc3c2Cl)cn1 [Compound I-029]
2,351,CCOc1nc2ccc(O[C@H]3CC[C@](C)(OC[C@H](C)NC(C)=O)CC3)c(Cl)c2s1 [Compound I-083]
3,775,CC(=O)N[C@@H](C)COc1cnc(Oc2ccc(C(=O)N3CCCCC3)c(F)c2F)cn1 [Compound I-096]
4,469,CC(=O)N[C@@H](C)COc1cnc(Oc2ccc3sc(C(C)C)nc3c2Cl)cn1 [Compound I-070]
5,154,CC(=O)N[C@@H](C)COc1cnc(Oc2ccc3nc(N4CC(F)(F)C4)ncc3c2Cl)cn1 [Compound I-072]
6,25,CCOc1nc2ccc(Oc3cnc(OC[C@H](C)NC(C)=O)cn3)c(C#N)c2s1 [Compound I-068]
7,1010,CCCc1ccc(Oc2ccc(OCC[C@H](C)NC(C)=O)cc2)c(Cl)c1 [Compound I-010]
8,29,CCOc1nc2ccc(Oc3cnc(O[C@@H](C)[C@H](C)NC(C)=O)cn3)c(F)c2s1 [Compound I-059]

# Same assay, conditions: Tables 155-159
row,IC50 [nM],SMILES
1,87,CC(=O)N[C@@H](C)CO[C@H]1CC[C@H](Oc2nc3cc(C(F)(F)F)ccc3n2C)CC1 [Compound I-587]
2,80,CC(=O)N[C@@H](C)CO[C@H]1CC[C@H](Oc2nc3ccc(Oc4cccnc4)cc3n2C)CC1 [Compound I-593]
3,17,CC(=O)N[C@@H](C)CO[C@H]1CC[C@H](Oc2nc3c(Cl)cc(OCC(F)F)c(Cl)c3n2C)CC1 [Compound I-623]
4,24,CC(=O)N[C@@H](C)CO[C@H]1C[C@H](COc2nccc(-c3ccc(F)cc3)c2F)C1 [Compound I-309]
5,43,CC(=O)N[C@@H](C)CO[C@H]1C[C@H](COc2ccc3nc(OC(C)C)sc3c2F)C1 [Compound I-153]
6,71,CCc1ccc2nc(O[C@H]3CC[C@H](OC[C@H](C)NC(C)=O)CC3)n(C)c2c1 [Compound I-583]
7,139,CC(=O)N[C@@H](C)CO[C@H]1CC[C@H](Oc2ccc3nc(OCC(C)(C)O)sc3c2F)CC1 [Compound I-129]
8,15,CC(=O)N[C@@H](C)CO[C@H]1C[C@H](COc2ccc3nc(OCC4CC4(F)F)sc3n2)C1 (stereo partly shown) [Compound I-197]
9,43,CC(=O)N[C@@H](C)CO[C@H]1CC[C@H](Oc2nc3ccc(OCc4ccccc4)cc3n2C)CC1 [Compound I-558]
10,104,CC(=O)N[C@@H](C)CO[C@H]1CC[C@H](Oc2nc3ccc(Br)cc3s2)CC1 [Compound I-547]
11,9,CC(=O)N[C@@H](C)CO[C@H]1CC[C@H](Oc2nc3c(F)c(Cl)c(OCC(F)F)c(F)c3n2C)CC1 [Compound I-733]
12,596,CC(=O)N[C@@H](C)CO[C@H]1C[C@H](Cn2ccc3c(OCc4ccccc4)ncnc32)C1 [Compound I-469]
13,7,CC(=O)N[C@@H](C)CO[C@H]1CC[C@H](Oc2nc3c(F)cc(OCC(F)F)c(F)c3n2C)CC1 [Compound I-741]
14,8,CC(=O)N[C@@H](C)CO[C@H]1CC[C@H](Oc2ncc3nc(OC4CC(F)(F)C4)sc3c2F)CC1 [Compound I-252]
15,31,COc1nc2ccc(OC[C@H]3C[C@H](OC[C@H](C)NC(C)=O)C3)nc2s1 [Compound I-250]
16,323,C[C@@H](CO[C@H]1CC[C@H](Oc2ncc(-c3ncc(F)cn3)cc2F)CC1)NS(C)(=O)=O [Compound I-540]
17,123,CC(=O)N[C@@H](C)CO[C@H]1CC[C@H](Oc2nc3c(Cl)cc(Br)cc3n2C)CC1 [Compound I-678]
18,87,CC(=O)N[C@@H](C)CO[C@H]1CC[C@H](Oc2nc3cnc(OC(F)F)c(Cl)c3n2C)CC1 [Compound I-736]
19,6,CC(=O)N[C@@H](C)CO[C@H]1CC[C@H](Oc2nc3c(F)cc(OCC4CC4)c(F)c3n2C)CC1 [Compound I-626]
20,11,CC(=O)N[C@@H](C)CO[C@H]1CC[C@H](Oc2ncc3nc(OCC4CC4(F)F)sc3c2F)CC1 (stereo partly shown) [Compound I-253]
21,104,CCOc1cc(F)c2c(nc(O[C@H]3CC[C@H](OC[C@H](C)NC(C)=O)CC3)n2C)c1F [Compound I-635]

row,IC50 [nM],SMILES
1,11,CC(=O)N[C@@H](C)CO[C@H]1CC[C@H](Oc2ccc3nc(N4CC(F)(F)C4)sc3c2F)CC1 [Compound I-175]
2,28,CC(=O)N[C@@H](C)CO[C@H]1C[C@H](COc2ncnc3c2ccn3Cc2cccc(F)c2)C1 [Compound I-473]
3,13,CC(=O)N[C@@H](C)CO[C@H]1CC[C@H](Oc2nc3c(cc2F)nc(OC2CC(F)(F)C2)n3C)CC1 [Compound I-518]
4,733,CC(=O)N[C@@H](C)CO[C@H]1C[C@H](COc2ncnc(-c3ccc(C(F)(F)F)cc3)c2C)C1 [Compound I-418]
5,11,CC(=O)N[C@@H](C)CO[C@H]1CC[C@H](Oc2nc3cnc(OC[C@H](C)F)c(Cl)c3n2C)CC1 [Compound I-608]
6,204,CC(=O)N[C@@H](C)CO[C@H]1C[C@H](COc2ccc3nc(OCC(F)F)n(C)c3n2)C1 [Compound I-484]
7,53,CC(=O)N[C@@H](C)CO[C@H]1C[C@H](COc2nccc3c2cnn3CC2CCC2)C1 [Compound I-428]
8,400,CC(=O)N[C@@H](C)CO[C@H]1C[C@H](COc2ncnc3c2ccn3-c2ccccc2)C1 [Compound I-448]
9,32,CC(=O)N[C@@H](C)CO[C@H]1C[C@H](COc2ncnc(OCc3cc(F)ccn3)c2F)C1 [Compound I-363]
10,465,CCOc1cccc(COc2ncnc(OC[C@H]3C[C@H](OC[C@H](C)NC(C)=O)C3)c2Cl)c1 [Compound I-408]
11,110,CC(=O)N[C@@H](C)CO[C@H]1CC[C@H](Oc2nc3c(Cl)cc(C4CC4)cc3n2C)CC1 [Compound I-648]
12,23,CC(=O)N[C@@H](C)CO[C@H]1C[C@H](COc2nccc(NCc3ccccc3)c2Cl)C1 [Compound I-401]
13,97,CC(=O)N[C@@H](C)CO[C@H]1C[C@H](COc2ccc3nc(OCC4(C)COC4)sc3n2)C1 [Compound I-211]
14,19,CC(=O)N[C@@H](C)CO[C@]1(C)C[C@@H](COc2ncnc(OCc3ccc(F)cn3)c2Cl)C1 [Compound I-457]
15,103,CC(=O)N[C@@H](C)CO[C@H]1C[C@@](F)(COc2ccc3nc(OCC(F)F)sc3n2)C1 [Compound I-226]
16,181,C[C@@H](CO[C@H]1CC[C@H](Oc2ccc3nc(C(C)(F)F)sc3c2F)CC1)NS(C)(=O)=O [Compound I-142]
17,172,CC(=O)N[C@@H](C)CO[C@H]1CC[C@H](Oc2cc3sc(OCc4ccc(F)cc4)nc3cn2)CC1 [Compound I-221]
18,62,CCSc1ccc2nc(O[C@H]3CC[C@H](OC[C@H](C)NC(C)=O)CC3)n(C)c2c1 [Compound I-577]
19,104,CC(=O)N[C@@H](C)CO[C@H]1CC[C@H](Oc2nc3ccc(OCC4CC4)cc3n2C)CC1 [Compound I-561]
20,8,CC(=O)N[C@@H](C)CO[C@H]1CC[C@H](Oc2ncc3nc(OCC(F)F)sc3c2F)CC1 [Compound I-239]
21,14,CC(=O)N[C@@H](C)CO[C@H]1C[C@H](COc2nccc(C3=CCCCC3)c2Cl)C1 [Compound I-317]

row,IC50 [nM],SMILES
1,3,CCOc1c(F)cc2nc(O[C@H]3CC[C@H](OC[C@H](C)NC(C)=O)CC3)n(C)c2c1F [Compound I-698]
2,7,C[C@@H](CC[C@@H]1CC[C@@H](Oc2nc3c(F)cc(OCC(F)F)c(Cl)c3n2C)CO1)NC(N)=O [Compound I-674]
3,12,CC(=O)N[C@@H](C)CO[C@H]1C[C@H](COc2ccc3nc(OCC(C)(F)F)sc3n2)C1 [Compound I-193]
4,740,CC(=O)N[C@@H](C)CO[C@H]1CC[C@H](Nc2nc3c(F)cc(OCC(F)F)c(F)c3n2C)CC1 [Compound I-744]
5,125,CC(=O)N[C@@H](C)CO[C@H]1C[C@H](COc2ccc3nc(N4CC(F)(F)C4)sc3c2F)C1 [Compound I-286]
6,6,CC(=O)N[C@@H](C)CO[C@H]1CC[C@H](Oc2ncc(-c3ncc(F)cn3)cc2C)CC1 [Compound I-532]
7,48,CC(=O)N[C@@H](C)CO[C@H]1CC[C@H](Oc2cc3sc(OC(C)CF)nc3cn2)CC1 (stereo partly shown) [Compound I-223]
8,110,CC(=O)N[C@@H](C)CO[C@H]1CC[C@H](Oc2nc3ccc(SCC(C)C)cc3n2C)CC1 [Compound I-578]
9,105,CC(=O)N[C@@H](C)CO[C@H]1C[C@H](COc2nccc(N3CCC(F)CC3)c2Cl)C1 [Compound I-330]
10,3,CC(=O)N[C@@H](C)CO[C@H]1CC[C@H](Oc2nc3c(F)cc(OC4CC(F)(F)C4)c(F)c3n2C)CC1 [Compound I-713]
11,190,CCC(O)(CC)c1nc2ccc(O[C@H]3CC[C@H](OC[C@H](C)NC(C)=O)CC3)c(F)c2s1 [Compound I-145]
12,10,CC(=O)N[C@@H](C)CO[C@H]1CC[C@H](Oc2ccc3nc(OC(C)C)sc3c2Cl)CC1 [Compound I-113]
13,130,COC(=O)N[C@@H](C)CO[C@H]1CC[C@H](Oc2ncc(-c3ncc(F)cn3)cc2F)CC1 [Compound I-541]
14,246,CC(=O)N[C@@H](C)CO[C@H]1CC[C@H](Oc2cc3sc(OCC4(F)COC4)nc3cn2)CC1 [Compound I-222]
15,457,CCOc1ccc2nc(O[C@H]3CC[C@H](OC[C@H](C)NC(C)=O)CC3)n(C)c2c1-c1ccccc1 [Compound I-661]
16,62,CC(=O)N[C@@H](C)CO[C@H]1C[C@H](COc2ncnc(OCc3ncccc3F)c2Cl)C1 [Compound I-405]
17,13,CC(=O)N[C@@H](C)CO[C@H]1C[C@H](COc2nccc(OCC3(C)CC3)c2Cl)C1 [Compound I-370]
18,99,CC(=O)N[C@@H](C)CO[C@H]1C[C@H](COc2cc(C)c3nc(OC4CC4)sc3n2)C1 [Compound I-258]
19,105,CC(=O)N[C@@H](C)CO[C@H]1CC[C@H](Oc2ncc(-c3ncccn3)cc2F)CC1 [Compound I-523]
20,240,CC(=O)N[C@@H](C)CO[C@H]1CC[C@H](Oc2nc3c(F)cc(OC4CN(C(C)=O)C4)c(F)c3n2C)CC1 [Compound I-616]
